According to patent US20190016689A1, “NOVEL FLUORINATED QUINAZOLINE DERIVATIVES AS EGFR INHIBITORS” (TRILLIUM THERAPEUTICS INC., priority 2016, published 2019):

What was measured:
K-562 = assay: NCI screening panel (SRB); assay type: cell-based; conditions: Homo sapiens, K562, K-562 (Leukemia), 48 h; for CC50: read-out: LC50 (the source's name)
NCI/ADR-RES = assay: NCI screening panel (SRB); assay type: cell-based; conditions: Homo sapiens, NCI/ADR-RES (Ovarian), 48 h; for CC50: read-out: LC50 (the source's name)
ACHN = assay: NCI screening panel (SRB); assay type: cell-based; conditions: Homo sapiens, ACHN (Renal), 48 h; for CC50: read-out: LC50 (the source's name)
EPHA6 = molecular target: T1, EPHA6 (Homo sapiens, UniProt Q9UF33); assay: Binding to EPHA (kinase competition binding, qPCR); design: T7 phage fusion (kinase-tagged phage) or DNA tag for qPCR; made in house; host or cells: E. coli BL21-derived host (T7 phage) or HEK-293; conditions: 300 nM, read-out: % Control @ 300 nM
T1 sequence (Q9UF33 23-1036): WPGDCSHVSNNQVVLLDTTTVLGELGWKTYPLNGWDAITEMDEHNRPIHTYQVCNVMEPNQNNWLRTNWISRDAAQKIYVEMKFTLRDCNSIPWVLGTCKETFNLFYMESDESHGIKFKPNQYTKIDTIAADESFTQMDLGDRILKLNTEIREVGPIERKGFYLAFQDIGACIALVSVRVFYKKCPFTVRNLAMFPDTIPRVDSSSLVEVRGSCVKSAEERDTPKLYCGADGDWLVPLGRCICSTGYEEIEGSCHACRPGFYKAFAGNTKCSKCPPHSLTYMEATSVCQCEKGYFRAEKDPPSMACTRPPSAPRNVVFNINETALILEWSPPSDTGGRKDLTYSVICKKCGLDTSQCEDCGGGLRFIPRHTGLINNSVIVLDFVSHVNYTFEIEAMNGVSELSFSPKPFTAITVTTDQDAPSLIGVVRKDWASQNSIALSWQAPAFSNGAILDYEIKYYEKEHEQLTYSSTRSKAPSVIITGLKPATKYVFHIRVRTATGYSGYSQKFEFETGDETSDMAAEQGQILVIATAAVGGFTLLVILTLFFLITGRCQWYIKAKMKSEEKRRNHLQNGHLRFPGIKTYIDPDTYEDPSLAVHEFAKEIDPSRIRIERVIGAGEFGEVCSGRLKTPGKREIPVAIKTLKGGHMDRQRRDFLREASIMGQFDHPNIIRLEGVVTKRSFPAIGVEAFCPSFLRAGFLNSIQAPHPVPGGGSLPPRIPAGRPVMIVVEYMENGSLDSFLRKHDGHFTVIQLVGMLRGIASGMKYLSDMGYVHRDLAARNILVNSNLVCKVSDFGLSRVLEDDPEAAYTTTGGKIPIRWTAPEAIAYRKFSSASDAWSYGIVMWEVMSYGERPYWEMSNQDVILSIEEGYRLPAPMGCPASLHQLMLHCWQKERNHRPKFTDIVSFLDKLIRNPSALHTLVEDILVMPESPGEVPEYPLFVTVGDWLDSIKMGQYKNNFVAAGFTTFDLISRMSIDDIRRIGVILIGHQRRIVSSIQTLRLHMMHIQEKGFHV
Description: The lysates were centrifuged and filtered to remove cell debris. […] All reactions were performed in polystyrene 96-well plates in a final volume of 0.135 ml.

Microsomal stability = assay type: in vitro ADME; conditions: Human liver microsomes with NADPH; for Remaining Percentage (%) after 60 min: 1 μM
Description: Working stocks were initially diluted to a concentration of 40.0 μM in 0.1 M potassium phosphate buffer before addition to the reaction vials. Pooled mouse (CD-1, male) or human (50 donors) liver microsomes were utilized at a final concentration of 0.5 mg/ml. […] Reactions were carried out at 37° C. in a shaker, and the final concentration of DMSO was kept constant at 0.01%. The final volume for each reaction was 100 μL, which includes the addition of an NADPH-Regeneration solution (NRS) mix. This NRS mix is comprised of glucose 6-phosphate dehydrogenase (0.4 U/mL), NADP+(1.3 mM), MgCl2 (3.3 mM), and glucose 6-phosphate (3.3 mM) in assay mixtures. […] Samples were then centrifuged at 4,000 rpm for 10 minutes to remove debris and precipitated protein. Approximately 150 μL of supernatant was subsequently transferred to a new 96 well microplate for LC/MS analysis.
Narrow-window mass extraction LC/MS analysis was performed for all samples using a Waters Xevo quadrupole time-of-flight (QTof) mass spectrometer and an ACQUITY UPLC system, to determine relative peak areas of parent compound.

DU-145 = assay: NCI screening panel (SRB); assay type: cell-based; conditions: Homo sapiens, DU-145 (Prostate), 48 h; for CC50: read-out: LC50 (the source's name)
A498 = assay: NCI screening panel (SRB); assay type: cell-based; conditions: Homo sapiens, A498 (Renal), 48 h; for CC50: read-out: LC50 (the source's name)
[1] = Chemical stability in PBS pH 7.4; assay type: physicochemical; conditions: 37° C.
Description: For PBS pH7.4: Prepare 100 mM bulk Na2HPO4 solution and 100 mM bulk NaH2PO4 solution. Place Na2HPO4 solution on a stirrer and slowly add NaH2PO4 solution until the pH is nearly 7.4 (±0.05).
The working solutions of test compound and control compound chlorambucil are prepared in DMSO at the concentration of 500 μM.
Place 2 μL of working solution of each sample in order into their proper 96-well rack. Add 198 μL of pre-incubated PBS pH 7.4 or simulated intestinal fluid into each vial of the cap-less Sample plate to achieve a final concentration of […]. The assay is performed in duplicate. Seal using a molded PTFE/Silicone plug. Then transfer the Sample plate to the Eppendorf Thermomixer Comfort plate shaker and shake at 37° C. at 1100 RPM. Take one of the glass vials at designated time points including 0, 30, 60, 120 and 240 min. For each time point, the initiation of the reaction is staggered so all time points are terminated with 1000 μL of cold quench solution (acetonitrile containing internal standards (IS, 200 nM Labetalol, 100 nM Alprazolam and 2 μM Ketoprofen) at the same time. Vortex for 1 minute. Centrifuge the samples in plate at 3,220 g for 5 minutes at 4° C. Transfer 100 μL of the supernatant to a new plate. The supernatant may be diluted with 100 μL or 200 μL water according to the LC/MS signal response and peak shape. Mix well and analyze samples using LC/MS/MS.

CN(C)C/C=C/C(=O)Nc1cc2c(Nc3ccc(F)c(Cl)c3F)ncnc2cc1OCCOC(F)F.O=C(O)/C=C\C(=O)O.O=C(O)/C=C\C(=O)O [Example I-9-MA, (E)-N-[4-(3-chloro-2,4-difluoro-anilino)-7-[2-(difluoromethoxy)ethoxy]quinazolin-6-yl]-4-(dimethylamino)but-2-enamide di-maleic acid salt]
GI50 (K-562): 459 nM
CC50 (K-562): 61900 nM
GI50 (NCI/ADR-RES): 839 nM
CC50 (NCI/ADR-RES): > 100000 nM
GI50 (ACHN): < 10 nM
CC50 (ACHN): 6010 nM
remaining binding at 0.3 µM (EPHA6): 3.5%
half-life at 1 μM (Microsomal stability): 0.986 h
microsomal CLint at 1 μM (Microsomal stability): 23.4 µL/min/mg
Remaining Percentage (%) after 60 min (Microsomal stability): 47.73%
GI50 (DU-145): 140 nM
CC50 (DU-145): 20800 nM
GI50 (A498): 319 nM
CC50 (A498): 6000 nM

CN(C)C/C=C/C(=O)Nc1cc2c(Nc3ccc(F)c(Cl)c3)ncnc2cc1O[C@H]1CCOC1 [Afatinib, reference compound]
Remaining Percentage (%) in PBS at pH 7.4 ([1]; 120 min): 101.12%
Remaining Percentage (%) in PBS at pH 7.4 ([1]; 240 min): 105.37%

CN(C)C/C=C/C(=O)Nc1cc2c(Nc3cccc(Cl)c3F)ncnc2cc1OCCOC(F)F.O=C(O)/C=C\C(=O)O [Example I-5-MA, (E)-N-[4-(3-chloro-2-fluoro-anilino)-7-[2-(difluoromethoxy)ethoxy]quinazolin-6-yl]-4-(dimethylamino)but-2-enamide dimaleic acid salt]
Remaining Percentage (%) in PBS at pH 7.4 ([1]; 120 min): 94.70%
Remaining Percentage (%) in PBS at pH 7.4 ([1]; 240 min): 91.17%

O=C(/C=C/CN1CCCCC1)Nc1cc2c(Nc3ccc(F)c(Cl)c3F)ncnc2cc1OCCOC(F)F.O=C(O)/C=C\C(=O)O.O=C(O)/C=C\C(=O)O [Example I-10-MA, (E)-N-[4-(3-chloro-2,4-difluoro-anilino)-7-[2-(difluoromethoxy)ethoxy]quinazolin-6-yl]-4-(1-piperidyl)but-2-enamide di-maleic acid salt]
GI50 (K-562): 1030 nM
CC50 (K-562): > 100000 nM
GI50 (NCI/ADR-RES): 1000 nM
CC50 (NCI/ADR-RES): > 100000 nM
GI50 (ACHN): < 10 nM
CC50 (ACHN): 15000 nM
remaining binding at 0.3 µM (EPHA6): 3.9%
half-life at 1 μM (Microsomal stability): 1.45 h
microsomal CLint at 1 μM (Microsomal stability): 15.9 µL/min/mg
Remaining Percentage (%) after 60 min (Microsomal stability): 60.64%
GI50 (DU-145): 266 nM
CC50 (DU-145): 37800 nM
GI50 (A498): 313 nM
CC50 (A498): 5920 nM
